In PubChem BioAssay AID318 (DTP/NCI, 2004) one finds T/C data, which are given here for 13 molecules.

This experiment concerns BDF1 mice, P815 leukemia ip, survival T/C. The experiment can be described thus: NCI In Vivo Anticancer Drug Screen. Data for tumor model P815 Mast Cell Leukemia (Ascitic) (intraperitoneal) in B6D2F1 (BDF1) mice. The settings on record: higher = longer survival. The procedure: The antitumor activity of compounds was measured in mice bearing transplantable tumors. Survival or tumor size were measured and the results are expressed as the measurement made in the treated group (T) divided by the measurement made in the vehicle treated control group (C). The tumor model used in this assay is P815 Mast Cell Leukemia (Ascitic) (intraperitoneal) in B6D2F1 (BDF1) mice

Setting [1] is: endpoint: median survival time, dose: 450.0 micrograms/kg/injection, schedule: Q01DX001 (ip), vehicle: saline + alcohol.
Setting [2] is: endpoint: median survival time, dose: 750.0 micrograms/kg/injection, schedule: Q01DX001 (ip), vehicle: saline + alcohol.
Where [3] appears, read: endpoint: median survival time, dose: 750.0 micrograms/kg/injection, schedule: Q04DX003 (ip), vehicle: saline + alcohol.
The mark [4] stands for this setting: endpoint: median survival time, dose: 1250.0 micrograms/kg/injection, schedule: Q04DX003 (ip), vehicle: saline + alcohol.
[5] abbreviates: endpoint: survival time, mean or median, dose: 2.0 mg/kg/injection, schedule: Q01DX010 (ip), vehicle: saline.
[6] abbreviates: endpoint: survival time, mean or median, dose: 4.0 mg/kg/injection, schedule: Q01DX010 (ip), vehicle: saline.

SMILES strings stand for the structures. Values joined by “and” are separate entries in the source; they are usually repeats but may differ in a detail not shown here. Identical values can stand only once. Toxic doses and inconclusive results are not listed. Starred links: 1 amine or outer side, 2 acyl side, 3 side chain; linkers in the order of their positions; H or OH if unused. Positions of bridges follow the written chain, without caps; N, C: chain ends. Non-standard residues stand in square brackets, D forms with d. Residues, ends and D or L forms follow the SMILES beside them. Chains are numbered I, II in the order given. Actinocin(1to9) = Cc1c2oc3c(C)ccc(C(=O)[*:2])c3nc-2c(C(=O)[*:1])c(N)c1=O; Actinocin(9to1) = Cc1c2oc3c(C)ccc(C(=O)[*:1])c3nc-2c(C(=O)[*:2])c(N)c1=O; NMeV = CN[CH](C(=O)O)C(C)C; Aze = O=C(O)[CH]1CCN1; Sar = CNCC(=O)O

With `O=C1CCC(N2C(=O)c3ccccc3C2=O)C(=O)N1` (configuration not stated), the T/C reads like this: (endpoint: survival time, mean or median, dose: 31.3 mg/kg/injection, schedule: Q01DX010 (ip), vehicle: saline) 104 % of control; (endpoint: survival time, mean or median, dose: 62.5 mg/kg/injection, schedule: Q01DX010 (ip), vehicle: saline) 100 % of control; (endpoint: survival time, mean or median, dose: 125.0 mg/kg/injection, schedule: Q01DX010 (ip), vehicle: saline) 96 % of control; (endpoint: survival time, mean or median, dose: 250.0 mg/kg/injection, schedule: Q01DX010 (ip), vehicle: saline) 96 % of control.
With `N=C(N)SCc1c2ccccc2c(CSC(=N)N)c2ccccc12`, the T/C is 162 % of control (endpoint: survival time, mean or median, dose: 5.0 mg/kg/injection, schedule: Q01DX010 (ip), vehicle: saline); 175 % of control and 200 % of control (endpoint: survival time, mean or median, dose: 10.0 mg/kg/injection, schedule: Q01DX010 (ip), vehicle: saline); 150 % of control (endpoint: survival time, mean or median, dose: 20.0 mg/kg/injection, schedule: Q01DX010 (ip), vehicle: saline); 150 % of control (endpoint: survival time, mean or median, dose: 40.0 mg/kg/injection, schedule: Q01DX010 (ip), vehicle: saline).
Consider `Cc1c2oc3c(C)ccc(C(=O)NC4C(=O)NC(C(C)C)C(=O)N5CCC5C(=O)N(C)CC(=O)N(C)C(C(C)C)C(=O)OC4C)c3nc-2c(C(=O)NC2C(=O)NC(C(C)C)C(=O)N3CCC3C(=O)N(C)CC(=O)N(C)C(C(C)C)C(=O)OC2C)c(N)c1=O` (configuration not stated) (I: TV[Aze][Sar][NMeV] / II: TV[Aze][Sar][NMeV]; ester I:1-I:C, II:1-II:C; linker I:N-II:N via Actinocin(9to1); configuration not given here), for which the T/C is 118 % of control (endpoint: median survival time, dose: 270.0 micrograms/kg/injection, schedule: Q04DX003 (ip), vehicle: saline + alcohol); 118 % of control under setting [1]; 113 % of control (endpoint: median survival time, dose: 450.0 micrograms/kg/injection, schedule: Q04DX003 (ip), vehicle: saline + alcohol); 121 % of control under setting [2]; 97 % of control under setting [3]; 105 % of control (endpoint: median survival time, dose: 1250.0 micrograms/kg/injection, schedule: Q01DX001 (ip), vehicle: saline + alcohol). The T/C under setting [4] was 92 % of control.
As to `NOCc1cscn1`, the T/C by setting is: (endpoint: median survival time, dose: 25.0 mg/kg/injection, schedule: Q01DX010 (ip), vehicle: saline sonified) 87 % of control; (endpoint: median survival time, dose: 50.0 mg/kg/injection, schedule: Q01DX010 (ip), vehicle: saline sonified) 100 % of control.
Take `CC[C@]1(O)C[C@H]2CN(CCc3c([nH]c4ccccc34)[C@@](C(=O)OC)(c3cc4c(cc3OC)N(C=O)[C@H]3[C@@](O)(C(=O)OC)[C@H](OC(C)=O)[C@]5(CC)C=CCN6CC[C@]43[C@@H]65)C2)C1`: the T/C by setting is: (endpoint: survival time, mean or median, dose: 0.09 mg/kg/injection, schedule: Q01DX015 (ip), vehicle: carboxymethylcellulose (CMC)) 185 % of control; (endpoint: survival time, mean or median, dose: 0.13 mg/kg/injection, schedule: Q01DX015 (ip), vehicle: carboxymethylcellulose (CMC)) 183 % of control; (endpoint: survival time, mean or median, dose: 0.2 mg/kg/injection, schedule: Q01DX015 (ip), vehicle: carboxymethylcellulose (CMC)) 213 % of control; (endpoint: survival time, mean or median, dose: 0.2 mg/kg/injection, schedule: Q01DX015 (ip), vehicle: saline) 107 % of control; (endpoint: survival time, mean or median, dose: 0.3 mg/kg/injection, schedule: Q01DX015 (ip), vehicle: carboxymethylcellulose (CMC)) 183 % of control; (endpoint: survival time, mean or median, dose: 0.3 mg/kg/injection, schedule: Q01DX015 (ip), vehicle: saline) 95 % of control. In addition, the T/C reads like this: (endpoint: survival time, mean or median, dose: 0.45 mg/kg/injection, schedule: Q01DX015 (ip), vehicle: carboxymethylcellulose (CMC)) 102 % of control; (endpoint: survival time, mean or median, dose: 0.8 mg/kg/injection, schedule: Q01DX001 (ip), vehicle: saline) 170 % of control; (endpoint: survival time, mean or median, dose: 1.8 mg/kg/injection, schedule: Q01DX001 (ip), vehicle: saline) 153 % of control; (endpoint: survival time, mean or median, dose: 4.3 mg/kg/injection, schedule: Q01DX001 (ip), vehicle: saline) 113 % of control; (endpoint: survival time, mean or median, dose: 12.5 micrograms/kg/injection, schedule: Q01DX015 (ip), vehicle: carboxymethylcellulose (CMC)) 116 % of control; (endpoint: survival time, mean or median, dose: 25.0 micrograms/kg/injection, schedule: Q01DX015 (ip), vehicle: carboxymethylcellulose (CMC)) 120 % of control. Besides, the T/C was 170 % of control (endpoint: survival time, mean or median, dose: 100.0 micrograms/kg/injection, schedule: Q01DX015 (ip), vehicle: carboxymethylcellulose (CMC)) and 158 % of control (endpoint: survival time, mean or median, dose: 150.0 micrograms/kg/injection, schedule: Q01DX015 (ip), vehicle: saline).
On to `CCCNc1ncnc2[nH]ncc12`, for which the T/C is 95 % of control and 104 % of control (endpoint: survival time, mean or median, dose: 3.13 mg/kg/injection, schedule: Q01DX010 (ip), vehicle: saline); 100 % of control and 116 % of control (endpoint: survival time, mean or median, dose: 6.25 mg/kg/injection, schedule: Q01DX010 (ip), vehicle: saline); 95 % of control and 100 % of control (endpoint: survival time, mean or median, dose: 12.5 mg/kg/injection, schedule: Q01DX010 (ip), vehicle: saline); 95 % of control (endpoint: survival time, mean or median, dose: 25.0 mg/kg/injection, schedule: Q01DX010 (ip), vehicle: saline).
`O=C(Nc1ccc(NC2=NCCN2)cc1)c1ccc(C(=O)Nc2ccc(NC3=NCCN3)cc2)cc1`: the T/C is 110 % of control and 111 % of control under setting [5]; 105 % of control and 113 % of control under setting [6].
Turning to `Cc1c2oc3c(C)ccc(C(=O)NC4C(=O)NC(C(C)C)C(=O)N5CCCC5C(=O)N(C)CC(=O)N(C)C(C(C)C)C(=O)OC4C)c3nc-2c(C(=O)NC2C(=O)NC(C(C)C)C(=O)N3CCC3C(=O)N(C)CC(=O)N(C)C(C(C)C)C(=O)OC2C)c(N)c1=O` (configuration not stated) (I: TV[Aze][Sar][NMeV] / II: TVP[Sar][NMeV]; ester I:1-I:C, II:1-II:C; linker I:N-II:N via Actinocin(1to9); configuration not given here), the T/C by setting is: under setting [1], 116 % of control; under setting [2], 118 % of control; under setting [3], 96 % of control; under setting [4], 93 % of control; (endpoint: median survival time, dose: 2080.0 micrograms/kg/injection, schedule: Q01DX001 (ip), vehicle: saline + alcohol) 86 % of control.
On to `NOCc1ccsn1`, for which the T/C is, setting by setting: (endpoint: median survival time, dose: 15.0 mg/kg/injection, schedule: Q01DX010 (ip), vehicle: saline sonified) 100 % of control; (endpoint: median survival time, dose: 30.0 mg/kg/injection, schedule: Q01DX010 (ip), vehicle: saline sonified) 100 % of control; (endpoint: median survival time, dose: 60.0 mg/kg/injection, schedule: Q01DX010 (ip), vehicle: saline sonified) 93 % of control.
In the case of `C[C@@H]1C[C@H]2CC[C@H](O2)[C@H](C)C(=O)O[C@@H](C)C[C@@H]2CC[C@@H](O2)[C@@H](C)C(=O)O[C@H](C)C[C@H]2CC[C@H](O2)[C@H](C)C(=O)O[C@@H](C)C[C@@H]2CC[C@@H](O2)[C@@H](C)C(=O)O1`, the T/C is 106 % of control (endpoint: survival time, mean or median, dose: 1.5 mg/kg/injection, schedule: Q01DX015 (ip), vehicle: other); 98 % of control (endpoint: survival time, mean or median, dose: 3.0 mg/kg/injection, schedule: Q01DX015 (ip), vehicle: other); 100 % of control (endpoint: survival time, mean or median, dose: 6.0 mg/kg/injection, schedule: Q01DX015 (ip), vehicle: other); 100 % of control (endpoint: survival time, mean or median, dose: 12.0 mg/kg/injection, schedule: Q01DX015 (ip), vehicle: other).
For the molecule `Nc1nc(SCc2ccccc2)c2[nH]cnc2n1`, the T/C by setting is: (endpoint: survival time, mean or median, dose: 8.0 mg/kg/injection, schedule: Q01DX010 (ip), vehicle: saline) 100 % of control and 105 % of control; (endpoint: survival time, mean or median, dose: 16.0 mg/kg/injection, schedule: Q01DX010 (ip), vehicle: saline) 100 % of control and 111 % of control; (endpoint: survival time, mean or median, dose: 64.0 mg/kg/injection, schedule: Q01DX010 (ip), vehicle: saline) 100 % of control and 122 % of control.
Take `CC(=O)NC1=C(N2CC2)C(=O)C(NC(C)=O)=C(N2CC2)C1=O`: the T/C (endpoint: survival time, mean or median, dose: 0.5 mg/kg/injection, schedule: Q01DX015 (ip), vehicle: carboxymethylcellulose (CMC)) is 203 % of control and the T/C (endpoint: survival time, mean or median, dose: 1.0 mg/kg/injection, schedule: Q01DX015 (ip), vehicle: carboxymethylcellulose (CMC)) was 103 % of control.
Regarding `CS(=O)(=O)OCCN(CCOS(C)(=O)=O)c1ccc(N=O)cc1`, the T/C is 161 % of control (endpoint: survival time, mean or median, dose: 1.0 mg/kg/injection, schedule: Q01DX010 (ip), vehicle: saline); 115 % of control under setting [5]; 100 % of control under setting [6].
